Read-outs that look alike come from different tables or passages of the source.
What was measured:
[1] = test system: human monocytes; assay: cytokine production by LPS-stimulated human monocytes (ELISA); format: cell-based
Description: (§1) Experiments were performed to determine the effects of zotarolimus, sirolimus and dexamethasone on the production of TNFα, IL-6 and MCP-1 by activated human monocytes In addition to monocytes and macrophages two other key cell types are involved in the etiology of restenosis, arterial smooth muscle and endothelial cells. These cells are activated and produce cytokines in response to TNFα. […] The activation of cytokine production by human coronary artery smooth muscle and endothelial cells following TNFα treatment was determined by measuring interleukine-8 (IL-8), MCP-1 and IL-6 production. As shown by the results of the experiments described below, the ability of these compounds to inhibit the production of cytokines supports their use in combination as anti-restenotic agents since these cytokines play a role in the development of restenosis. […] After 24 hours, the supernatants were carefully collected and TNFα, IL-6 and MCP-1 levels determined by ELISA. Primary cultures of human coronary artery endothelial and smooth muscle cells were obtained from Cambrex and maintained as described by the vendor. […] After 24 hours the supernatants were removed and replaced with media containing TNFα (5 ng/ml) in the presence and absence of various concentrations of zotarolimus, dexamethasone or sirolimus. The cells were incubated for 24 hours and the supernatants carefully removed and frozen until measurement. Cytokine levels were measured in the supernatants by sandwich ELISA.

[2] = test system: human coronary artery endothelial cells (hCaEC); assay: cytokine production by TNFα-treated human coronary artery endothelial cells (ELISA); format: cell-based; conditions: TNFα (5 ng/ml), 24 hours
Description: as §1

[3] = test system: human coronary artery smooth muscle cells (hCaSMC); assay: cytokine production by TNFα-treated human coronary artery smooth muscle cells (ELISA); format: cell-based; conditions: hCaSMC, TNFα (5 ng/ml), 24 hours
Description: as §1

[4] = Phase 1 multiple escalating dose study, QD intravenous infusion for 14 days, safety and pharmacokinetics; format: in vivo, human; conditions: for AUC(0-inf) / Cmax / clearance / Vd / half-life / AUC: human, whole blood; for AUC: Day 14, blood
Description: The present study was designed to evaluate the pharmacokinetics of zotarolimus following multiple dosing and to assess its safety while maximizing systemic exposure of healthy subjects. […] The study investigated pharmacokinetics and safety of zotarolimus in a Phase 1, multiple dose-escalation study following multiple intravenous infusions of 200, 400 and 800 μg doses, every day for fourteen consecutive days in healthy subjects.
Phase 1, multiple-escalating dose, double-blind, placebo-controlled, randomized study. Seventy-two subjects equally divided in 3 once-daily (QD) regimens (200, 400 or 800 μg QD with 16 active and 8 placebo per regimen) were administered a 60-minute QD IV infusion of zotarolimus for 14 consecutive days. Blood samples were collected over 24 hours following the first dose, before dosing on days 10, 11, 12, 13, and for 168 hours following Day 14 dose. Urine samples were collected over 24 hours on days 1, 14, 16, 18 and 20. Blood and urine zotarolimus concentrations were determined using a validated LC/MS/MS method. Pharmacokinetic parameters were determined by compartmental analysis. All Day-AUC0-∞ (area under blood concentration-time curve from time 0 to infinity including all 14 doses) was calculated. Dose and time-linearity and achievement of steady-state were evaluated. Fraction of drug eliminated in urine was determined.
Within each group, subjects were equally divided at the two study sites with each site enrolling 12 subjects (zotarolimus, eight subjects; placebo four subjects). The dosing scheme within each dose group is presented below:
Subjects received, under fasting conditions, a single 60-minute daily (QD) intravenous infusion of 200, 400, or 800 μg of zotarolimus or a matching intravenous infusion of placebo for Groups I, II and III, respectively on Study Days 1 through 14. The drug was administered via a syringe pump connected to a y-site device, which also infused 125-150 mL of 5% aqueous dextrose solution (D5W) over 60 minutes. The groups were dosed sequentially with at least 7 days separating the last dose of the previous group and the first dose of the next group during which time safety data from the previous group was analyzed. Dose escalation was dependent on the safety analysis of the lower dose group.
Five (5)-mL blood samples were collected in potassium EDTA containing tubes to evaluate zotarolimus concentrations prior to dosing (0 hour), and at 0.25, 0.5, 1.0, 1 hour 5 min, 1.25, 1.5, 2, 3, 4, 8, 12, 18 and 24 hours after starting infusion on Study Days 1 and 14. Additional samples were collected at 36, 48, 72, 96, 120, 144 and 168 hours after starting infusion on Study Day 14 and before dosing on Days 10, 11, 12 and 13. Urine was collected in containers without preservatives over the following intervals: 0 to 6, 6 to 12, 12 to 18 and 18 to 24 hours after starting the infusion on Study Days 1, 14, 16, 18 and 20.
Blood and urine concentrations of zotarolimus were determined using a validated liquid/liquid extraction HPLC tandem mass spectrometric method (LC-MS/MS). The lower limit of quantification of zotarolimus was 0.20 ng/mL using 0.3 mL blood sample and 0.50 ng/mL using 0.3 mL urine sample.
Safety was evaluated based on adverse event, physical examination, vital signs, ECG, injection site and laboratory tests assessments
The pharmacokinetic parameter values of zotarolimus were estimated for individual subjects using compartmental analysis. Data from the first dose on Study Day 1, the last dose on Study Day 14 and the trough concentrations on Study Days 10, 11, 12 and 13 were simultaneously modeled for each individual subject. […]

[5] = test system: human coronary artery endothelial cells (hCaEC); assay: 3H-thymidine uptake proliferation assay, hCaEC; format: cell-based; conditions: Homo sapiens, Endothelial cell, 3 h; read-out: hCaEC IC50 Mean ± SEM

Question: Which results are given for `CO[C@H]1C[C@@H]2CC[C@@H](C)[C@@](O)(O2)C(=O)C(=O)N2CCCC[C@H]2C(=O)O[C@H]([C@H](C)C[C@@H]2CC[C@H](n3cnnn3)[C@H](OC)C2)CC(=O)[C@H](C)/C=C(\C)[C@@H](O)[C@@H](OC)C(=O)[C@H](C)C[C@H](C)/C=C/C=C/C=C/1C` [zotarolimus]?
Answer: MCP-1 production by human monocytes in vitro ([1]; FIG. 10): dose-dependently inhibit MCP-1 production; production of TNFα and IL-6 by human monocytes ([1]; FIGS. 10 and 11): not demonstrated; Maximal Inhibitory Activity, IL-6 ([1]; Monocytes, 24 hours): − (− indicates maximal inhibitory activity less than 50% of control); Maximal Inhibitory Activity, MCP-1 ([1]; Monocytes, 24 hours): +++ (+++ indicates maximal inhibitory activity of 75-100% of control); Maximal Inhibitory Activity, TNF ([1]; Monocytes, 24 hours): − (− indicates maximal inhibitory activity less than 50% of control); Maximal Inhibitory Activity, IL-6 [2]: − (− indicates maximal inhibitory activity less than 50% of control); Maximal Inhibitory Activity, Il-8 [2]: − (− indicates maximal inhibitory activity less than 50% of control); Maximal Inhibitory Activity, MCP-1 [2]: − (− indicates maximal inhibitory activity less than 50% of control); Maximal Inhibitory Activity, IL-6 [3]: − (− indicates maximal inhibitory activity less than 50% of control); Maximal Inhibitory Activity, Il-8 [3]: − (− indicates maximal inhibitory activity less than 50% of control); Maximal Inhibitory Activity, MCP-1 [3]: − (− indicates maximal inhibitory activity less than 50% of control); fraction of dose recovered in the urine ([4]; 800 μg QD dose group, within a 24-hour period on Day 1 and Day 14): approximately 0.1%; most common treatment-emergent adverse events ([4]; 200, 400, 800 μg QD IV for 14 days): pain, headache, injection site reaction, dry skin, abdominal pain, diarrhea and rash; V1, range of means over the studied regimens ([4]; 200-800 μg QD IV for 14 days): 11.3 to 13.1 L; steady state for QD dosing reached ([4]; first trough samples measured on Day 10): ≤ 10 days; AUC(0-inf) ([4]; intravenous, 200 μg QD dose group, read-out: median All Day −AUC0-∞): 0.677 µg·h/mL; AUC(0-inf) ([4]; intravenous, 400 μg QD dose group, read-out: median All Day −AUC0-∞): 1.44 µg·h/mL; AUC(0-inf) ([4]; intravenous, 800 μg QD dose group, read-out: median All Day −AUC0-∞): 2.4 µg·h/mL; Cmax ([4]; 200 μg QD IV infusion for 14 days, blood, secondary predicted parameter): 0.0112 ± 0.0011 µg/mL; clearance ([4]; 200 μg QD IV infusion for 14 days, blood, secondary predicted parameter, read-out: CL (converted)): 70 mL/min; Vd ([4]; 200 μg QD IV infusion for 14 days, blood, secondary predicted parameter, read-out: Vss): 92.5 ± 13 L; half-life ([4]; 200 μg QD IV infusion for 14 days, blood, harmonic mean ± pseudo-standard deviation, read-out: t½ (converted)): 24.7 ± 4.6 h; AUC ([4]; 200 μg QD IV infusion, secondary predicted parameter): 0.049 ± 0.0062 µg·h/mL; Cmax ([4]; 400 μg QD IV infusion for 14 days, blood, secondary predicted parameter): 0.0214 ± 0.0024 µg/mL; clearance ([4]; 400 μg QD IV infusion for 14 days, blood, secondary predicted parameter, read-out: CL (converted)): 66.7 mL/min; Vd ([4]; 400 μg QD IV infusion for 14 days, blood, secondary predicted parameter, read-out: Vss): 112 ± 21.1 L; half-life ([4]; 400 μg QD IV infusion for 14 days, blood, harmonic mean ± pseudo-standard deviation, read-out: t½ (converted)): 31 ± 4.6 h; AUC ([4]; 400 μg QD IV infusion, secondary predicted parameter): 0.104 ± 0.019 µg·h/mL; Cmax ([4]; 800 μg QD IV infusion for 14 days, blood, secondary predicted parameter): 0.0387 ± 0.0063 µg/mL; clearance ([4]; 800 μg QD IV infusion for 14 days, blood, secondary predicted parameter, read-out: CL (converted)): 76.7 mL/min; Vd ([4]; 800 μg QD IV infusion for 14 days, blood, secondary predicted parameter, read-out: Vss): 118 ± 18.7 L; half-life ([4]; 800 μg QD IV infusion for 14 days, blood, harmonic mean ± pseudo-standard deviation, read-out: t½ (converted)): 30 ± 4.1 h; AUC ([4]; 800 μg QD IV infusion, secondary predicted parameter): 0.179 ± 0.0174 µg·h/mL; clearance ([4]; 200-800 μg QD IV for 14 days, read-out: CL, range of means over the studied regimens): 66.7 to 76.7 mL/min; Vd ([4]; 200-800 μg QD IV for 14 days, read-out: Vss, range of means over the studied regimens): 92.5 to 118 L; half-life ([4]; 200-800 μg QD IV for 14 days, read-out: terminal elimination t1/2, range of means over the studied regimens): 24.7 to 31 h; AUC(0-inf) ([4]; 200-800 μg QD IV, time 0 to infinity including all 14 doses, read-out: All Day-AUC0-∞, range over the studied regimens): 0.677 to 2.4 µg·h/mL; dose proportionality and time dependence of pharmacokinetics ([4]; intravenously for 14 consecutive days): dose proportional and time invariant; IC50 [5]: 3.2 ± 0.5 nM

Reference: patent publication US8394398B2 (Abbott Laboratories, priority 1997, dated 2013)
